≈ marks a conversion by molar mass, not a printed value.
Experiments:
Format in all cases: functional
[1] = test system: Bacillus pumilus; test: Antibacterial activity against Bacillus pumilus MTCC 1456 at 500 ug/ml after 18 hr by cup-plate method; conditions: MTCC 1456, 18 h, read-out: DIZ
[2] = test system: Bacillus subtilis; test: Antibacterial activity against Bacillus subtilis MTCC 441 at 1500 ug/ml after 18 hr by cup plate method; conditions: MTCC 441, 18 h, read-out: DIZ
[3] = test system: Escherichia coli; test: Antibacterial activity against Escherichia coli MTCC 1573 at 100 ug/ml after 18 hr by cup-plate method; conditions: MTCC 1573, 18 h, read-out: DIZ
[4] = test system: Escherichia coli; test: Antibacterial activity against Escherichia coli MTCC 1573 after 24 hr by broth dilution method; conditions: MTCC 1573, 24 h
[5] = test system: Pseudomonas fluorescens; test: Antibacterial activity against Pseudomonas fluorescens MTCC 2421 after 24 hr by broth dilution method; conditions: MTCC 2421, 24 h
[6] = test system: Penicillium chrysogenum; test: Antifungal activity against Penicillium chrysogenum MTCC 161 at 200 ug/ml after 18 hr by cup-plate method; conditions: MTCC 161, 18 h, read-out: DIZ
[7] = test system: Pseudomonas aeruginosa; test: Antibacterial activity against Pseudomonas aeruginosa MTCC 424 after 24 hr by broth dilution method; conditions: MTCC 424, 24 h
[8] = test system: Bacillus pumilus; test: Antibacterial activity against Bacillus pumilus MTCC 1456 after 24 hr by broth dilution method; conditions: MTCC 1456, 24 h
[9] = test system: Aspergillus niger; test: Antifungal activity against Aspergillus niger MTCC 2546 at 500 ug/ml after 18 hr by cup-plate method; conditions: MTCC 2546, 18 h, read-out: DIZ
[10] = test system: Escherichia coli; test: Antibacterial activity against Escherichia coli MTCC 1573 at 1000 ug/ml after 18 hr by cup-plate method; conditions: MTCC 1573, 18 h, read-out: DIZ
[11] = test system: Pseudomonas aeruginosa; test: Antibacterial activity against Pseudomonas aeruginosa MTCC 424 at 1500 ug/ml after 18 hr by cup-plate method; conditions: MTCC 424, 18 h, read-out: DIZ
[12] = test system: Micrococcus luteus; test: Antibacterial activity against Micrococcus luteus MTCC 1538 at 200 ug/ml after 18 hr by cup-plate method; conditions: MTCC 1538, 18 h, read-out: DIZ
[13] = test system: Staphylococcus aureus; test: Antibacterial activity against Staphylococcus aureus MTCC 1430 at 500 ug/ml after 18 hr by cup-plate method; conditions: MTCC 1430, 18 h, read-out: DIZ
[14] = test system: Micrococcus luteus; test: Antibacterial activity against Micrococcus luteus MTCC 1538 at 100 ug/ml after 18 hr by cup-plate method; conditions: MTCC 1538, 18 h, read-out: DIZ
[15] = test system: Aspergillus niger; test: Antifungal activity against Aspergillus niger MTCC 2546 at 1500 ug/ml after 18 hr by cup-plate method; conditions: MTCC 2546, 18 h, read-out: DIZ
[16] = test system: Bacillus subtilis; test: Antibacterial activity against Bacillus subtilis MTCC 441 at 200 ug/ml after 18 hr by cup plate method; conditions: MTCC 441, 18 h, read-out: DIZ
[17] = test system: Escherichia coli; test: Antibacterial activity against Escherichia coli MTCC 1573 at 200 ug/ml after 18 hr by cup-plate method; conditions: MTCC 1573, 18 h, read-out: DIZ
[18] = test system: Pseudomonas aeruginosa; test: Antibacterial activity against Pseudomonas aeruginosa MTCC 424 at 100 ug/ml after 18 hr by cup-plate method; conditions: MTCC 424, 18 h, read-out: DIZ
[19] = test system: Penicillium chrysogenum; test: Antifungal activity against Penicillium chrysogenum MTCC 161 at 500 ug/ml after 18 hr by cup-plate method; conditions: MTCC 161, 18 h, read-out: DIZ
[20] = test system: Pseudomonas aeruginosa; test: Antibacterial activity against Pseudomonas aeruginosa MTCC 424 at 200 ug/ml after 18 hr by cup-plate method; conditions: MTCC 424, 18 h, read-out: DIZ
[21] = test system: Staphylococcus aureus; test: Antibacterial activity against Staphylococcus aureus MTCC 1430 at 100 ug/ml after 18 hr by cup-plate method; conditions: MTCC 1430, 18 h, read-out: DIZ
[22] = test system: Bacillus subtilis; test: Antibacterial activity against Bacillus subtilis MTCC 441 after 24 hr by broth dilution method; conditions: MTCC 441, 24 h
[23] = test system: Staphylococcus aureus; test: Antibacterial activity against Staphylococcus aureus MTCC 1430 at 1500 ug/ml after 18 hr by cup-plate method; conditions: MTCC 1430, 18 h, read-out: DIZ
[24] = test system: Aspergillus niger; test: Antifungal activity against Aspergillus niger MTCC 2546 after 24 hr by broth dilution method; conditions: MTCC 2546, 24 h
[25] = test system: Pseudomonas fluorescens; test: Antibacterial activity against Pseudomonas fluorescens MTCC 2421 at 1500 ug/ml after 18 hr by cup-plate method; conditions: MTCC 2421, 18 h, read-out: DIZ
[26] = test system: Pseudomonas aeruginosa; test: Antibacterial activity against Pseudomonas aeruginosa MTCC 424 at 1000 ug/ml after 18 hr by cup-plate method; conditions: MTCC 424, 18 h, read-out: DIZ
[27] = test system: Aspergillus niger; test: Antifungal activity against Aspergillus niger MTCC 2546 at 1000 ug/ml after 18 hr by cup-plate method; conditions: MTCC 2546, 18 h, read-out: DIZ

C(=N/c1nc[nH]n1)/c1cccc2ccccc12
zone of inhibition at 500 µg/mL [1]: 17 mm | zone of inhibition at 1500 µg/mL [2]: 21 mm | zone of inhibition at 100 µg/mL [3]: 17 mm | MIC [4]: 50 µg/mL (≈ 225 µM) | MIC [5]: 300 µg/mL (≈ 1350 µM) | zone of inhibition at 200 µg/mL [6]: 18 mm | MIC [7]: 200 µg/mL (≈ 900 µM) | MIC [8]: 300 µg/mL (≈ 1350 µM) | zone of inhibition at 500 µg/mL [9]: 18 mm | zone of inhibition at 1000 µg/mL [10]: 23 mm | zone of inhibition at 1500 µg/mL [11]: 24 mm | zone of inhibition at 200 µg/mL [12]: 15 mm | zone of inhibition at 500 µg/mL [13]: 14 mm | zone of inhibition at 100 µg/mL [14]: 12 mm | zone of inhibition at 1500 µg/mL [15]: 22 mm | zone of inhibition at 200 µg/mL [16]: 16 mm | zone of inhibition at 200 µg/mL [17]: 18 mm | zone of inhibition at 100 µg/mL [18]: 17 mm | zone of inhibition at 500 µg/mL [19]: 20 mm | zone of inhibition at 200 µg/mL [20]: 18 mm | zone of inhibition at 100 µg/mL [21]: 12 mm | MIC [22]: 300 µg/mL (≈ 1350 µM) | zone of inhibition at 1500 µg/mL [23]: 18 mm | MIC [24]: 50 µg/mL (≈ 225 µM) | zone of inhibition at 1500 µg/mL [25]: 23 mm | zone of inhibition at 1000 µg/mL [26]: 22 mm | zone of inhibition at 1000 µg/mL [27]: 21 mm
